Experimental data taken from patent US20230174507A1, “IMIDAZOLE 3-OXIDE DERIVATIVE BASED ACSS2 INHIBITORS AND METHODS OF USE THEREOF” (METABOMED LTD., priority 2020, published 2023).

Legend:
human ACSS1 protein = molecular target: T1, human ACSS1 protein (Homo sapiens, UniProt Q9NUB1); assay: ACSS1 cell-free activity assay (pyrophosphatase-coupled, Biomol green); format: biochemical; conditions: 5 nM human ACSS1, 30 minutes at room temperature, absorbance at 620 nm
T1 construct: purchased MyBioSource
T1 sequence (Q9NUB1 38-689): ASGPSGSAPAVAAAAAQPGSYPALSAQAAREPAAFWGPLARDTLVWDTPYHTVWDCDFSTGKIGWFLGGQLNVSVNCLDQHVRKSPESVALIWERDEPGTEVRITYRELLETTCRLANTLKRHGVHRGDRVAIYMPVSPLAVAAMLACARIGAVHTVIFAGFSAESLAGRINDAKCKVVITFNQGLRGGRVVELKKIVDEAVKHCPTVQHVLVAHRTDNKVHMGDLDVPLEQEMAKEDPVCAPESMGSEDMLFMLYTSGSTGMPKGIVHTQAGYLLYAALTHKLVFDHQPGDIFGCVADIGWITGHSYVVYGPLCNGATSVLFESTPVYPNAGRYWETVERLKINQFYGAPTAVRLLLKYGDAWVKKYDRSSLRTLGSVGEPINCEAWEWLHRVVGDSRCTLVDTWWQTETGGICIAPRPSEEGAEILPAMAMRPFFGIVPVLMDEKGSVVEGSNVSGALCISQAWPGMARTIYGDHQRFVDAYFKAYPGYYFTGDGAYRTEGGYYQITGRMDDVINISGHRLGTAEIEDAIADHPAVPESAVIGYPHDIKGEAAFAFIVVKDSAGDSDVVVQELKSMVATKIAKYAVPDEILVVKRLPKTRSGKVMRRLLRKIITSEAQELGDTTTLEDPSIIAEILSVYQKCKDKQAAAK
Protocol: ACSS1 Cell-Free Activity Assay (Cell-Free IC50)
(§1) The assay is based on a coupling reaction with Pyrophosphatase: ACSS1 is converting ATP+CoA+Acetate=>AMP+pyrophosphate+Acetyl-CoA (Ac-CoA). Pyrophosphatase converts pyrophosphate, a product of the ACSS1 reaction, to phosphate which can be detected by measuring the absorbance at 620 nm after incubation with the Biomol green reagent (Enzo life Science, BML-AK111).
(§2) Cell Free IC50 Determination:
5 nM of human ACSS1 protein (MyBioSource) was incubated for 30 minutes at room temperature with various compounds' concentrations in a reaction containing 50 mM Hepes pH 7.5, 10 mM DTT, 90 mM KCl, 0.006% Tween-20, 0.1 mg/ml BSA, 2 mM MgCl2, 15 μM CoA, 5 mM NaAc, 300 μM ATP and 0.5 U/ml Pyrophosphatase (Sigma). At the end of the reaction, Biomol Green was added for 30 minutes at RT and the activity was measured by reading the absorbance at 620 nm. IC50 values were calculated using non-linear regression curve fit with 0% and 100% constrains (CDD Vault, Collaborative Drug Discovery, Inc.).

human ACSS2 protein = molecular target: T2, human ACSS2 protein (Homo sapiens, UniProt Q9NR19); assay: ACSS2 cell-free activity assay (pyrophosphatase-coupled, Biomol green); conditions: 10 nM human ACSS2, 90 minutes at 37 C, absorbance at 620 nm; read-out: ACSS2 Biochemical IC50
T2 construct: purchased OriGene Technologies, Inc
Protocol: ACSS2 Cell-Free Activity Assay (Cell-Free IC50)
as §1, with “ACSS2” for “ACSS1”
as §2
10 nM of human ACSS2 protein (OriGene Technologies, Inc) was incubated for 90 minutes at 37 C with various compounds' concentrations in a reaction containing 50 mM Hepes pH 7.5, 10 mM DTT, 90 mM KCl, 0.006% Tween-20, 0.1 mg/ml BSA, 2 mM MgCl2, 10 μM CoA, 5 mM NaAc, 300 μM ATP and 0.5 U/ml Pyrophosphatase (Sigma). At the end of the reaction, Biomol Green was added for 30 minutes at RT and the activity was measured by reading the absorbance at 620 nm. IC50 values were calculated using non-linear regression curve fit with 0% and 100% constrains (CDD Vault, Collaborative Drug Discovery, Inc.).

T2 sequence (Q9NR19 whole entry): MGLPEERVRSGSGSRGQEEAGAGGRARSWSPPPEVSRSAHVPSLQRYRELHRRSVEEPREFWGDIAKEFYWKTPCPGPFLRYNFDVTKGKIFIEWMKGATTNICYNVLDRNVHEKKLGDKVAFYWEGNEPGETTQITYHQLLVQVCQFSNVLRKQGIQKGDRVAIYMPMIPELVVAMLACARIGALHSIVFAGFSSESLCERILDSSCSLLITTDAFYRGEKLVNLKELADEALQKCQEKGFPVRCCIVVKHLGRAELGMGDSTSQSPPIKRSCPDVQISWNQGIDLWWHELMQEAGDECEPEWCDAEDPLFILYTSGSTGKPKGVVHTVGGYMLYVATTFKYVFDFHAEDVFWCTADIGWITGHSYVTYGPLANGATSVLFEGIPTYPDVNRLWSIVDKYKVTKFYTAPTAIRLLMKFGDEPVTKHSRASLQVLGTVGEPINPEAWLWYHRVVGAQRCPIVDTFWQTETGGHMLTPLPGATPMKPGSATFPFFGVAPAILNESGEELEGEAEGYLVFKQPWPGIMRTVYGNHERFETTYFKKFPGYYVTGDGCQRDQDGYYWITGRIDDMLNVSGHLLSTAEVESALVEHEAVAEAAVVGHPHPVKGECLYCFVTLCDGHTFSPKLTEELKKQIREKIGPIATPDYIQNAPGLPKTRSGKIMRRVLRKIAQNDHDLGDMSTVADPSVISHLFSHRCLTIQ

SMILES	ACSS1 Biochemical IC50 (nM) (human ACSS1 protein)	IC50 (human ACSS2 protein)
CCC(F)(F)c1cccc(NC(=O)c2c(C)[nH]c(-c3ccc(OC)c(-c4ccncn4)c3C)[n+]2[O-])c1 [Compound 144, 4-((3-(1,1-difluoropropyl)phenyl)carbamoyl)-2-(4-methoxy-2-methyl-3-(pyrimidin-4-yl)phenyl)-5-methyl-1H-imidazole 3-oxide]	Inactive	> 30 nM
COc1ccc(-c2[nH]c(C)c(C(=O)Nc3cccc(C(F)(F)C4(C)CC4)c3)[n+]2[O-])cc1-c1c(C)cccc1C [Compound 151, 4-((3-(difluoro(1-methylcyclopropyl)methyl)phenyl)carbamoyl)-2-(6-methoxy-2′,6′-dimethyl-[1,1′-biphenyl]-3-yl)-5-methyl-1H-imidazole 3-oxide]	Inactive	> 30 nM
COc1ccc(-c2[nH]c(C)c(C(=O)Nc3cccc(-c4ccc[nH]4)c3)[n+]2[O-])cc1-c1c(C)cccc1C [Compound 191, 4-((3-(1H-pyrrol-2-yl)phenyl)carbamoyl)-2-(6-methoxy-2′,6′-dimethyl-[1,1′-biphenyl]-3-yl)-5-methyl-1H-imidazole 3-oxide]	Inactive	> 30 nM
CCC(F)(F)c1cccc(NC(=O)c2c(C)n(COC(C)=O)c(-c3ccc(OC)c(-c4c(C)cccc4C)c3)[n+]2[O-])c1 [Compound 200, 1-(acetoxymethyl)-4-((3-(1,1-difluoropropyl)phenyl)carbamoyl)-2-(6-methoxy-2′,6′-dimethyl-[1,1′-biphenyl]-3-yl)-5-methyl-1H-imidazole 3-oxide]	Inactive	> 30 nM
CCC(F)(F)c1cccc(NC(=O)c2c(C)[nH]c(-c3ccc(OC)c(-c4cnccn4)c3C)[n+]2[O-])c1 [Compound 127, 4-((3-(1,1-difluoropropyl)phenyl)carbamoyl)-2-(4-methoxy-2-methyl-3-(pyrazin-2-yl)phenyl)-5-methyl-1H-imidazole 3-oxide]	Inactive	> 30 nM
COc1ccc(-c2[nH]c(C)c(C(=O)Nc3cccc(C(=O)N4CCNCC4)c3)[n+]2[O-])cc1-c1c(C)cccc1C [Compound 153, 2-(6-methoxy-2′,6′-dimethyl-[1,1′-biphenyl]-3-yl)-5-methyl-4-((3-(piperazine-1-carbonyl)phenyl)carbamoyl)-1H-imidazole 3-oxide]	Inactive	> 30 nM
COc1ccc(-c2[nH]c(C)c(C(=O)Nc3cccc(C(=O)N4CCOCC4)c3)[n+]2[O-])cc1-c1c(C)cccc1C [Compound 148, 2-(6-methoxy-2′,6′-dimethyl-[1,1′-biphenyl]-3-yl)-5-methyl-4-((3-(morpholine-4-carbonyl)phenyl)carbamoyl)-1H-imidazole 3-oxide]	Inactive	> 30 nM
COc1ccc(-c2[nH]c(C)c(C(=O)Nc3cccc(C(O)(O)C(F)(F)F)c3)[n+]2[O-])cc1-c1c(C)cccc1C [Compound 195, 2-(6-methoxy-2′,6′-dimethyl-[1,1′-biphenyl]-3-yl)-5-methyl-4-((3-(2,2,2-trifluoro-1,1-dihydroxyethyl)phenyl)carbamoyl)-1H-imidazole 3-oxide]	Inactive	> 30 nM
C/C=C/c1cc(C)c(-c2cc(-c3[nH]c(C)c(C(=O)Nc4cccc(C(F)(F)CC)c4)[n+]3[O-])ccc2OC)c(C)c1 [Compound 159, (E)-4-((3-(1,1-difluoropropyl)phenyl)carbamoyl)-2-(6-methoxy-2′,6′-dimethyl-4′-(prop-1-en-1-yl)-[1,1′-biphenyl]-3-yl)-5-methyl-1H-imidazole 3-oxide]	Inactive	1 to 30 nM
Cc1cccc(C)c1-c1cc(-c2ccccc2)cc(-c2[nH]c(C)c(C(=O)Nc3cccc(C(F)(F)C4CC4)c3)[n+]2[O-])c1 [Compound 133, 4-((3-(cyclopropyldifluoromethyl)phenyl)carbamoyl)-2-(2,6-dimethyl-[1,1′:3′,1″-terphenyl]-5′-yl)-5-methyl-1H-imidazole 3-oxide]	Inactive	1 to 30 nM
CCC(F)(F)c1cccc(NC(=O)c2c(C)n(COP(=O)(OC)OC)c(-c3ccc(OC)c(-c4c(C)cccc4C)c3)[n+]2[O-])c1 [Compound 205, 4-((3-(1,1-difluoropropyl)phenyl)carbamoyl)-1-(((dimethoxyphosphoryl)oxy)methyl)-2-(6-methoxy-2′,6′-dimethyl-[1,1′-biphenyl]-3-yl)-5-methyl-1H-imidazole 3-oxide]	Inactive	> 30 nM
CCC(F)(F)c1cccc(NC(=O)c2c(C)[nH]c(-c3cc(C)cc(-c4c(C)cccc4C)c3)[n+]2[O-])c1 [Compound 130, 4-((3-(1,1-difluoropropyl)phenyl)carbamoyl)-5-methyl-2-(2′,5,6′-trimethyl-[1,1′-biphenyl]-3-yl)-1H-imidazole 3-oxide]	–	1 to 30 nM

Continued, values first:

ACSS1 Biochemical IC50 (nM) (human ACSS1 protein)	IC50 (human ACSS2 protein)	SMILES
Inactive	< 1 nM	CCC(F)(F)c1cccc(NC(=O)c2c(C)[nH]c(-c3ccc(OC)c(N4CCNCC4)c3)[n+]2[O-])c1 [Compound 164, 4-((3-(1,1-difluoropropyl)phenyl)carbamoyl)-2-(4-methoxy-3-(piperazin-1-yl)phenyl)-5-methyl-1H-imidazole 3-oxide]
Inactive	< 1 nM	CCC(F)(F)c1cccc(NC(=O)c2c(C)[nH]c(-c3ccc(OC)c(C4CCNCC4)c3)[n+]2[O-])c1 [Compound 162, 4-((3-(1,1-difluoropropyl)phenyl)carbamoyl)-2-(4-methoxy-3-(piperidin-4-yl)phenyl)-5-methyl-1H-imidazole 3-oxide]
Inactive	< 1 nM	COc1ccc(-c2[nH]c(C)c(C(=O)Nc3cccc(C(=O)N4CCC4)c3)[n+]2[O-])cc1-c1c(C)cccc1C [Compound 170, 4-((3-(azetidine-1-carbonyl)phenyl)carbamoyl)-2-(6-methoxy-2′,6′-dimethyl-[1,1′-biphenyl]-3-yl)-5-methyl-1H-imidazole 3-oxide]
Inactive	1 to 30 nM	CC#Cc1cc(C)c(-c2cc(-c3[nH]c(C)c(C(=O)Nc4cccc(C(F)(F)CC)c4)[n+]3[O-])ccc2OC)c(C)c1 [Compound 156, 4-((3-(1,1-difluoropropyl)phenyl)carbamoyl)-2-(6-methoxy-2′,6′-dimethyl-4′-(prop-1-yn-1-yl)-[1,1′-biphenyl]-3-yl)-5-methyl-1H-imidazole 3-oxide]
Inactive	1 to 30 nM	CCC(F)(F)c1cccc(NC(=O)c2c(C)[nH]c(-c3ccc(OC)c(-c4c(C(F)(F)F)cccc4C(F)(F)F)c3)[n+]2[O-])c1 [Compound 128, 4-((3-(1,1-difluoropropyl)phenyl)carbamoyl)-2-(6-methoxy-2′,6′-bis(trifluoromethyl)-[1,1′-biphenyl]-3-yl)-5-methyl-1H-imidazole 3-oxide]
Inactive	1 to 30 nM	CCN(C)C(=O)c1cccc(NC(=O)c2c(C)[nH]c(-c3ccc(OC)c(-c4c(C)cccc4C)c3)[n+]2[O-])c1 [Compound 140, 4-((3-(ethyl(methyl)carbamoyl)phenyl)carbamoyl)-2-(6-methoxy-2′,6′-dimethyl-[1,1′-biphenyl]-3-yl)-5-methyl-1H-imidazole 3-oxide]
